Assay results: BindingDB's records for doi:10.1021/jm9903343 (Harvard Medical School, 2000)

Experiment: Binding affinity towards Opioid receptor delta 1 by displacing the radioligand [3H]naltrindole from guinea pig brain membrane

O=C1c2ccc(O)cc2C23CCCCC2C1N(CC1CCCO1)CC3 (stereo not drawn)
Ki: 1 nM

O=C1c2ccc(O)cc2C23CCCCC2C1N(CC1CC1)CC3 (stereo not drawn)
Ki: 150 nM

C[C@H]1C2C(=O)c3ccc(O)cc3[C@@]1(C)CCN2CC1CCCO1 (stereo partly drawn) [8-Hydroxy-6,11-dimethyl-3-(tetrahydro-furan-2-ylmethyl)-3,4,5,6-tetrahydro-2H-2,6-methano-benzo[d]azocin-1-one]
Ki: > 100000 nM
